Experimental data from patent US9829481B2, “Senescence tracers” (Eberhard Karls Universitaet Tuebingen Medizinische Fakultaet, priority 2012, dated 2017).

Tests used:
Assay type in all cases: cell-based
[1] = system: MCF7 cells (breast cancer cell line); test: Senescence β-galactosidase staining, light microscopy; settings: 250 nM Doxorubicin for 24 hours
Experimental: FIG. 2: Light microscope pictures of β-gal-stained HCT116 and MCF7 cells with and with out 250 nM Doxorubicin treatment.
To stimulate HCT116 (colorectal carcinoma cell line) cells and MCF7 (breast cancer cell line) cells for senescence β-galactosidase staining, the cells were treated with 250nM Doxorubicin for 24 hours. Doxorubicin interacts with DNA by intercalation and inhibits the progression of the enzyme topoisonerase II.

[2] = system: HCT116 cells (colorectal carcinoma cell line); test: Lysosome staining with LysoTracker; settings: presence vs absence of Doxorubicin
Excerpt: (§1) FIG. 3: Graph of staining signals obtained for HCT116 and MCF7 cells stained with LysoTracker® both in the presence and absence of Doxorubicin.

[3] = system: MCF7 cells (breast cancer cell line); test: Lysosome staining with LysoTracker; settings: presence vs absence of Doxorubicin
Excerpt: as §1

[4] = system: HCT116 cells (colorectal carcinoma cell line); test: FACS analysis of labelling of senescent (Doxorubicin-treated) cells; settings: with vs without 250 nM Doxorubicin, labeled with 40 ng/ml compound, 20 min, 37° C., 5% CO2
Experimental: (§2) FIG. 1: FACS-analysis data of the compound of Example 5 in HCT116 cells (colorectal carcinoma cell line) and MCF7 cells (breast cancer cell line) with and with out 250 nM Doxorubicin treatment.
(§3) MCF7 cells with (senescence +) and without 250 nM Doxorubicin treatment. The cells were incubated 20 min in 37° C. with 5% CO2.
(§4) To show the capability of the compounds of the invention to mark and visualise senescent cells, HCT116 cells (colorectal carcinoma cell line) and MCF7 cells (breast cancer cell line) were incubated 20 min at 37° C. with 5% CO2 in the presence and absence of Doxorubicin. The cells were then labeled with 40 ng/ml of the compound of Example 5.
(§5) To show the capability of the compounds of the invention to mark and visualise senescent cells, HCT116 cells (colorectal carcinoma cell line) and MCF7 cells (breast cancer cell line) were incubated 20 min in 37° C. with 5% CO2. The cells were then labeled with 40 ng/ml of the compound of Example 2.

[5] = system: MCF7 cells (breast cancer cell line); test: as above; settings: with vs without 250 nM Doxorubicin, labeled with 40 ng/ml compound, 20 min, 37° C., 5% CO2
Experimental: as §2, §3, §4, §5

For COc1cccc2c1C(=O)c1c(O)c3c(c(O)c1C2=O)C[C@@](O)(C(=O)CO)C[C@@H]3O[C@H]1C[C@H](N)[C@H](O)[C@H](C)O1 [Doxorubicin], the “β-gal expression (senescence staining)” value [1] was “strong expression of β-gal”, the “lysosome staining signal compared to untreated cells” value [2] was “enhanced positive lysosome staining” and the “lysosome staining signal compared to untreated cells” value [3] was “enhanced positive lysosome staining”.

With CN(C)c1cccc2c(S(=O)(=O)NCCNc3ccnc4cc(Cl)ccc34)cccc12 [Example 2] the “enrichment of the labeled compound in Doxorubicin-treated (senescent) cells (FACS)” value (“enrichment of the labeled compound” below) [4] was “enhanced enrichment” and the “enrichment of the labeled compound” value [5] was “enhanced enrichment”.

CCN(CC)c1ccc2nc3c4cc(OCCCS[C@H]5O[C@@H](C)[C@@H](O)[C@@H](O)[C@@H]5O)ccc4c(=O)cc-3oc2c1 [Example 5] was tested, and the “enrichment of the labeled compound” value [5] was “enhanced enrichment”.
